From PubChem BioAssay (NCI)
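These data come from cells grown in 96-well plates and exposed to compound for 48 hours at five concentrations. TGI marks complete inhibition of growth.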

Columns and labels:
Experiment in all cases: DTP human tumour cell line panel, 48 h
SF-295 CNS = system: SF-295 CNS
DU-145 prostate = system: DU-145 prostate
SW-620 colon = system: SW-620 colon
786-0 renal = system: 786-0 renal
UO-31 renal = system: UO-31 renal
T-47D breast = system: T-47D breast
SK-MEL-5 melanoma = system: SK-MEL-5 melanoma
MDA-MB-435 = system: MDA-MB-435
MCF7 breast = system: MCF7 breast
UACC-257 melanoma = system: UACC-257 melanoma
MOLT-4 leukemia = system: MOLT-4 leukemia
OVCAR-5 ovarian = system: OVCAR-5 ovarian
OVCAR-3 ovarian = system: OVCAR-3 ovarian
RPMI-8226 leukemia = system: RPMI-8226 leukemia
NCI-H460 lung = system: NCI-H460 lung
SK-MEL-2 melanoma = system: SK-MEL-2 melanoma
HCT-15 colon = system: HCT-15 colon
NCI-H226 lung = system: NCI-H226 lung
HOP-92 NSCLC = system: HOP-92 NSCLC
MDA-N = system: MDA-N
SK-OV-3 ovarian = system: SK-OV-3 ovarian
HT29 colon = system: HT29 colon
SF-539 CNS = system: SF-539 CNS
SF-268 CNS = system: SF-268 CNS
ACHN renal = system: ACHN renal
KM12 colon = system: KM12 colon
HCC-2998 colon = system: HCC-2998 colon
NCI-H23 lung = system: NCI-H23 lung
A498 renal = system: A498 renal
CCRF-CEM leukemia = system: CCRF-CEM leukemia
NCI-H522 lung = system: NCI-H522 lung
HCT-116 colon = system: HCT-116 colon
K-562 leukemia = system: K-562 leukemia
HS 578T breast = system: HS 578T breast
EKVX NSCLC = system: EKVX NSCLC
RXF 393 renal = system: RXF 393 renal
IGROV1 ovarian = system: IGROV1 ovarian
U251 CNS = system: U251 CNS
UACC-62 melanoma = system: UACC-62 melanoma
SNB-19 CNS = system: SNB-19 CNS
OVCAR-8 ovarian = system: OVCAR-8 ovarian
MDA-MB-231 breast = system: MDA-MB-231 breast
SK-MEL-28 melanoma = system: SK-MEL-28 melanoma
COLO 205 colon = system: COLO 205 colon
TK-10 renal = system: TK-10 renal
HOP-62 NSCLC = system: HOP-62 NSCLC
SN12C renal = system: SN12C renal
CAKI-1 renal = system: CAKI-1 renal
LOX IMVI melanoma = system: LOX IMVI melanoma
PC-3 prostate = system: PC-3 prostate
SNB-75 CNS = system: SNB-75 CNS
M14 melanoma = system: M14 melanoma
BT-549 breast = system: BT-549 breast
NCI/ADR-RES ovarian = system: NCI/ADR-RES ovarian
MALME-3M melanoma = system: MALME-3M melanoma
OVCAR-4 ovarian = system: OVCAR-4 ovarian
A549 NSCLC = system: A549 NSCLC
HL-60(TB) leukemia = system: HL-60(TB) leukemia

Measured: TGI

CCN(CC(=O)O)CC(=O)O
not listed: HL-60(TB) leukemia
> 100 µM: all other assays above

COc1cc2c(cc1O)CC[n+]1cc3c(OC)c(OC)ccc3cc1-2
not listed: RXF 393 renal | HOP-62 NSCLC
> 100 µM: all other assays above
